Results reported in patent US7064120B2, “Tricyclic pyridyl carboxamides and derivatives thereof tocolytic oxytocin receptor antagonists” (Wyeth, priority 2001, dated 2006).

Biological target: T1, human vasopressin V1a receptor subtype (Homo sapiens, UniProt P37288)
T1 construct: host or cells: CHO cells, stably transfected (pZeoSV vector for the Thibonnier line)
Test: Vasopressin binding in CHO cell membranes expressing human vasopressin V1a subtype receptors ([3H]Manning ligand radioligand binding)
Conditions: 100 nM
Summary of the method: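 Membranes from CHO cells expressing human V1a, 25–50 μg protein/well, incubated 60 min at room temperature with [3H]Manning ligand (20 μL of 8 nM stock) in 50 mM Tris-HCl pH 7.4 with BSA, MgCl2 and protease inhibitors. Filtration then scintillation counting; reported as % inhibition or IC50 (nM).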

T1 sequence (P37288 whole entry): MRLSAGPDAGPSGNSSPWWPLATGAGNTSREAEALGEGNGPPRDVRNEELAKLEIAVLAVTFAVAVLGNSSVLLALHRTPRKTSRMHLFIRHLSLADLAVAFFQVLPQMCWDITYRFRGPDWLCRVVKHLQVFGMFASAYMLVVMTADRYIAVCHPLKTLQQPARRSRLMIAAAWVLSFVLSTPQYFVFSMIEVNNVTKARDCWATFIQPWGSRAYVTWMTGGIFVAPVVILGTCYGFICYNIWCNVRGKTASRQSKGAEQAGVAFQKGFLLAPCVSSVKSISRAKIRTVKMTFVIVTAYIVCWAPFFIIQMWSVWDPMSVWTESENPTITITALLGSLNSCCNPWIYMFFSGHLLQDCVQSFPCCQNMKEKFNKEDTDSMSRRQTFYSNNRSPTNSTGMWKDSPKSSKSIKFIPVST

SMILES | inhibition at 0.1 µM
COc1cc(C(=O)N2Cc3ccc(C(=O)N4CCN(c5ccncc5)CC4)n3Cc3ccccc32)ccc1-n1c(C)ccc1C [Example 146, {10-[4-(2,5-Dimethyl-1H-pyrrol-1-yl)-3-methoxybenzoyl]-10,11-dihydro-5H-pyrrolo[2,1-c][1,4]benzodiazepin-3-yl}[4-(pyridin-4-yl)-1-piperazinyl]methanone] | 11%
COc1cc(C(=O)N2Cc3ccc(C(=O)N(C)CCc4ccncc4)n3Cc3ccccc32)ccc1-n1c(C)ccc1C [Example 147, 10-[4-(2,5-Dimethyl-1H-pyrrol-1-yl)-3-methoxybenzoyl]-N-methyl-N-[2-(pyridin-4-yl)ethyl]-10,11-dihydro-5H-pyrrolo[2,1-c][1,4]benzodiazepine-3-carboxamide] | 15%
